Tests used:
Liver cancer cells Huh-7 = assay: Liver cancer cell growth inhibition, CellTiter-Glo Luminescent Cell Viability Assay; type: cell-based; conditions: Huh-7 cells, various concentrations, day 1, FIG. 6; result in words
Experimental: In addition, an analysis of liver cancer growth inhibitory activity was performed. Liver cancer cells Huh-7 cells were dispensed in a 96-well plate at 1 × 10^4 cells/ml, and after 20 hours, PCI34051, Example 27, and Example 35 were added at various concentrations, and cultured for 24 and 48 hours at 37°C in a 5% CO2 atmosphere. After culturing, 100 µl CellTiter-Glo Luminescent Cell Viability Assay reagent was added and the luminescence signal was measured after 0.5-1 hour. The luminescence signal was measured using IVIS [PerkinElmer, (Waltham, USA)].

HDAC4 = HDAC4 (Homo sapiens, UniProt P56524); assay: Selective HDAC inhibition, HDAC Fluorogenic assay kit; conditions: read-out: HDAC4 enzyme activity (%)
Chain of HDAC4 (P56524 whole entry): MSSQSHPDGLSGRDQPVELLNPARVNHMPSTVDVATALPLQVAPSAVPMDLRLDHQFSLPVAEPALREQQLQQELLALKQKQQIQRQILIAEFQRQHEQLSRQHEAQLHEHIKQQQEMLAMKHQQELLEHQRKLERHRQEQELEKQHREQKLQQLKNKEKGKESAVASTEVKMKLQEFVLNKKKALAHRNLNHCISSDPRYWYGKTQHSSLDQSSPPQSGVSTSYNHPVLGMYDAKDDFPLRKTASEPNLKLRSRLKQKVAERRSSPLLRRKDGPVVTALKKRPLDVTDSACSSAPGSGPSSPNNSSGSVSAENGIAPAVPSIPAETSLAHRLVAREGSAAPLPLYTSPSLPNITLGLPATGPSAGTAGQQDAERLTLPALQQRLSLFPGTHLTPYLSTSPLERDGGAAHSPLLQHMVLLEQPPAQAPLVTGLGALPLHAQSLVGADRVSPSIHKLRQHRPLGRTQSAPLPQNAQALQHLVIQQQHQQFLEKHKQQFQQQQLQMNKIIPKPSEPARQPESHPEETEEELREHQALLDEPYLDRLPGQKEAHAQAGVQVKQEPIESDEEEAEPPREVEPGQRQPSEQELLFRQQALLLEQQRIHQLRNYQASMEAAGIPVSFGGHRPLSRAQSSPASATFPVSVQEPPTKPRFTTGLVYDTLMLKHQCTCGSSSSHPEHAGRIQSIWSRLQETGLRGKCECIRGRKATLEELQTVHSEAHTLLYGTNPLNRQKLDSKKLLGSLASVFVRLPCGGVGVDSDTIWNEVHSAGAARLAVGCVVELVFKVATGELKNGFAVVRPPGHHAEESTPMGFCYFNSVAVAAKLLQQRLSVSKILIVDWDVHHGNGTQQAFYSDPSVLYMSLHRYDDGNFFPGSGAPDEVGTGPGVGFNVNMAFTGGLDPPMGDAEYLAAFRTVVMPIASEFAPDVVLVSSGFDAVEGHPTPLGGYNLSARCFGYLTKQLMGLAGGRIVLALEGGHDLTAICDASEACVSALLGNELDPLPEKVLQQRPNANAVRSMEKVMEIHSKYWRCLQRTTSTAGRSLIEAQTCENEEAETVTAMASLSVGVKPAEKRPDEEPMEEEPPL
Experimental: For analysis, HDAC substrate 3 was diluted in buffer to a concentration of 200 µM and used in HDAC 1, 2, 3, 6, and 10 assays, HDAC substrate 2A was diluted in buffer to a concentration of 200 µM and used in HDAC 4, 7, 9, and 11 assays, HDAC substrate 2A was diluted in buffer to a concentration of 20 µM and used in HDAC 8 assays. For the HDAC 11 assay, a dedicated buffer included in the kit was used separately, and the same buffer was used for the remaining assays. The compound of the Example was diluted to 1 mM (1% DMSO concentration) using DMSO to obtain a final concentration of 10 µM, and prepared by diluting 1/10 with assay buffer. In a 96-well black round-bottom plate, 5 µL of the diluted compound of the Example, 5 µL of the diluted HDAC substrate, 5 µL of BSA (1 mg/ml), 5 µL of the HDAC enzyme diluted to the appropriate concentration, and 30 µL of assay buffer were added, and the enzyme reaction was performed at 37°C for 30 minutes. […] Afterwards, 50 µL of 2X HDAC developer was added to each well. After reacting for 15 minutes at room temperature, the fluorescence values at excitation wavelengths of 350-380 nm and emission wavelengths of 440-460 nm were measured using a microplate reader (Synergy Neo).

PC-3 cell lines = assay: Prostate cancer model, PC-3 cell lines subcutaneously transplanted, tumor volume and weight; type: in vivo, nude mice; conditions: result in words
Experimental: A prostate cancer model was established by subcutaneously transplanting PC-3 cell lines into nude mice, and the mice were divided into two groups (group 1: vehicle administration group (10% DSMO, 30% PEG400, 60% DW), group 2: 50 mg/kg Example 27 compound administration group). The drug was administered orally once a day for 12 times. To evaluate the therapeutic efficacy, tumors were […] before drug administration and on days 3, 6, 8, 10, 12, and 14 after drug administration, and tumor volumes were measured. Tumor volume (mm^3) was calculated as follows (tumor volume (mm^3) = (A X B^2)/2, where A = tumor long axis, B = tumor short axis), and the results are shown in FIG. 2.
Meanwhile, on day 12 of drug administration, the tumor was removed and its weight was measured, the results are shown in FIG. 3, and a photograph of the removed tumor was taken and shown in FIG. 4.

[1] = system: PC-3 prostate cancer cells; assay: Prostate cancer cell growth inhibition, CCK-8 assay; type: cell-based, human; conditions: PC-3 cells, result in words
Experimental: PC-3, a human-derived prostate cancer cell line, was cultured with RPMI1640 (10% fetal bovine serum, 1% Penicillin Streptomycin) culture medium at 37°C, 5% CO2 condition. All cells in the experiment were subcultured when they reached a confluency of approximately 80% to 90%, and only cells that had not passed 20 passages were used.
After culturing, 10 µL CCK-8 reagent was added and the absorbance was measured after 1 hour. The absorbance was measured at 450 nm using a microplate reader [BMG Labtech (Offenburg, Germany)].

What does the source list for `Cc1cc2nc(C(=O)NCCc3c[nH]c4ccc(O)cc34)c(=O)n(C[C@H](O)[C@H](O)[C@H](O)CO)c2cc1C` [Example 27, N-(2-(5-hydroxy-1H-indol-3-yl)ethyl)-6,7-dimethyl-3-oxo-4-((2S,3S,4R)-2,3,4,5-tetrahydroxypentyl)-3,4-dihydroquinoxaline-2-carboxamide]?
cell viability (Liver cancer cells Huh-7): concentration-dependent inhibition of cancer cell viability; remaining activity at 10 µM (HDAC4): 98.2%; tumor volume (PC-3 cell lines; 50 mg/kg orally once a day for 12 times, up to day 14, *p<0.05 compared with vehicle, FIG. 2): significantly reduced tumor volume growth rate compared to group 1; tumor weight (PC-3 cell lines; 50 mg/kg orally once a day, tumor removed on day 12, ***p<0.0005 compared with vehicle, FIG. 3): vehicle administration group (group 1) had a significantly higher tumor weight; cancer cell viability inhibition rate ([1]; compared with PCI-34051, FIG. 1): superior to that of PCI-34051; cell viability ([1]; various concentrations, 24 hours and 48 hours, FIG. 1): effectively reduced the viability of prostate cancer cells in a concentration- and time-dependent manner

Reference: patent publication EP4501917A1, “3,4-DIHYDROQUINOXALINE-2-CARBOXIMIDE DERIVATIVE COMPOUND AND PHARMACEUTICAL COMPOSITION COMPRISING SAME FOR PREVENTING OR TREATING CANCER DISEASE” (Daegu-Gyeongbuk Medical Innovation Foundation, priority 2022, dated 2023)
